# Several values for one entry are separate records, joined by “and”; a condition that tells them apart may be missing. Equal values may be shown once. Read-outs that look alike come from different tables or passages of the source.
# Tests used:
# various yeast species = experiment: Effect of levulinic acids plus SDS at 21° C. on various yeast species; format: cell-based; conditions: for Yeast counts at min: 1: 1 min; for Yeast counts at min: 2: 2 min; for Yeast counts at min: 5: 5 min; for Yeast counts at min: 10: 10 min; for Yeast counts at min: 20: 20 min; for Yeast counts at min: 30: 30 min; for Yeast counts at min: 60: 60 min
# aerobic plate count = experiment: Aerobic plate counts (APC) on produce treated in a 4-L tank
# yeasts and molds = experiment: Yeast and mold (Y&M) counts on produce and in treatment solution, 4-L tank
# S. typhimurium = S. typhimurium counts on produce (apples, celery, onions, cantaloupes) and in treatment solution, 4-L tank
# S. enteritidis = experiment: Reduction of S. enteritidis in water treated with organic acids and SDS; format: cell-based, Salmonella enteritidis
# S. typhimurium DT 104 = format: cell-based, Salmonella typhimurium DT104; conditions: water, 21° C.
# [1] = tested on: spores of Bacillus anthracis Sterne; format: cell-based, Bacillus anthracis Sterne (34F2)
# L. monocytogenes = format: cell-based, Listeria monocytogenes; conditions: 21° C.
molecule,measurement,setting,value
CCCCCCCCCCCCOS(=O)(=O)[O-].[Na+] [1.0% SDS],Yeast counts at min: 1,various yeast species; Candida magnoliae,3.5 log CFU/ml
same,Yeast counts at min: 2,various yeast species; Candida magnoliae,3.3 log CFU/ml
same,Yeast counts at min: 5,various yeast species; Candida magnoliae,3.2 log CFU/ml
same,Yeast counts at min: 10,various yeast species; Candida magnoliae,3.2 log CFU/ml
same,Yeast counts at min: 20,various yeast species; Candida magnoliae,2.7 log CFU/ml
same,Yeast counts at min: 30,various yeast species; Candida magnoliae,3.0 log CFU/ml
same,Yeast counts at min: 60,various yeast species; Candida magnoliae,3.1 log CFU/ml
same,Yeast counts at min: 1,various yeast species; Debaryomyces hansenii,4.5 log CFU/ml
same,Yeast counts at min: 2,various yeast species; Debaryomyces hansenii,4.1 log CFU/ml
same,Yeast counts at min: 5,various yeast species; Debaryomyces hansenii,4.5 log CFU/ml
same,Yeast counts at min: 10,various yeast species; Debaryomyces hansenii,4.4 log CFU/ml
same,Yeast counts at min: 20,various yeast species; Debaryomyces hansenii,4.5 log CFU/ml
same,Yeast counts at min: 30,various yeast species; Debaryomyces hansenii,4.5 log CFU/ml
same,Yeast counts at min: 60,various yeast species; Debaryomyces hansenii,4.4 log CFU/ml
same,Yeast counts at min: 1,various yeast species; Geotrichum candidum,3.8 log CFU/ml
same,Yeast counts at min: 2,various yeast species; Geotrichum candidum,3.3 log CFU/ml
same,Yeast counts at min: 5,various yeast species; Geotrichum candidum,3.5 log CFU/ml
same,Yeast counts at min: 10,various yeast species; Geotrichum candidum,3.7 log CFU/ml
same,Yeast counts at min: 20,various yeast species; Geotrichum candidum,3.5 log CFU/ml
same,Yeast counts at min: 30,various yeast species; Geotrichum candidum,3.4 log CFU/ml
same,Yeast counts at min: 60,various yeast species; Geotrichum candidum,3.3 log CFU/ml
same,Yeast counts at min: 1,various yeast species; Saccharomyces cerevisiae,2.4 log CFU/ml
same,Yeast counts at min: 2,various yeast species; Saccharomyces cerevisiae,2.6 log CFU/ml
same,Yeast counts at min: 5,various yeast species; Saccharomyces cerevisiae,2.3 log CFU/ml
same,Yeast counts at min: 10,various yeast species; Saccharomyces cerevisiae,2.8 log CFU/ml
same,Yeast counts at min: 20,various yeast species; Saccharomyces cerevisiae,2.7 log CFU/ml
same,Yeast counts at min: 30,various yeast species; Saccharomyces cerevisiae,2.3 log CFU/ml
same,Yeast counts at min: 60,various yeast species; Saccharomyces cerevisiae,2.4 log CFU/ml
same,Yeast counts at min: 1,various yeast species; Zygosaccharomyces bailii,4.7 log CFU/ml
same,Yeast counts at min: 2,various yeast species; Zygosaccharomyces bailii,4.6 log CFU/ml
same,Yeast counts at min: 5,various yeast species; Zygosaccharomyces bailii,4.6 log CFU/ml
same,Yeast counts at min: 10,various yeast species; Zygosaccharomyces bailii,4.6 log CFU/ml
same,Yeast counts at min: 20,various yeast species; Zygosaccharomyces bailii,4.5 log CFU/ml
same,Yeast counts at min: 30,various yeast species; Zygosaccharomyces bailii,4.5 log CFU/ml
same,Yeast counts at min: 60,various yeast species; Zygosaccharomyces bailii,4.4 log CFU/ml
acidified sodium chlorite [50 ppm acidified sodium chlorite],reduction of APC on onions,aerobic plate count,< 0.5 log CFU per onion
same,reduction of yeast and mold counts on onions,yeasts and molds,< 0.5 log CFU per onion
same,reduction of S. typhimurium on onions,S. typhimurium,< 0.5 log CFU per onion
CC(=O)CCC(=O)O [2.0% levulinic acids],Yeast counts at min: 1,various yeast species; Candida magnoliae,5.9 log CFU/ml
same,Yeast counts at min: 2,various yeast species; Candida magnoliae,5.9 log CFU/ml
same,Yeast counts at min: 5,various yeast species; Candida magnoliae,5.9 log CFU/ml
same,Yeast counts at min: 10,various yeast species; Candida magnoliae,6.0 log CFU/ml
same,Yeast counts at min: 20,various yeast species; Candida magnoliae,6.0 log CFU/ml
same,Yeast counts at min: 30,various yeast species; Candida magnoliae,5.9 log CFU/ml
same,Yeast counts at min: 60,various yeast species; Candida magnoliae,5.8 log CFU/ml
CC(=O)CCC(=O)O [2% levulinic acid],Yeast counts at min: 1,various yeast species; Zygosaccharomyces bailii,5.4 log CFU/ml
same,Yeast counts at min: 2,various yeast species; Zygosaccharomyces bailii,5.5 log CFU/ml
same,Yeast counts at min: 5,various yeast species; Zygosaccharomyces bailii,5.4 log CFU/ml
same,Yeast counts at min: 10,various yeast species; Zygosaccharomyces bailii,5.4 log CFU/ml
same,Yeast counts at min: 20,various yeast species; Zygosaccharomyces bailii,5.4 log CFU/ml
same,Yeast counts at min: 30,various yeast species; Zygosaccharomyces bailii,5.4 log CFU/ml
same,Yeast counts at min: 60,various yeast species; Zygosaccharomyces bailii,5.3 log CFU/ml
"CCCCCCCCCCCCOS(=O)(=O)[O-].[Na+] [SDS, sodium dodecyl sulfate]",Salmonella reduction,S. enteritidis,did not reduce
same,S. enteritidis counts,S. enteritidis; sulfate,7.1 log CFU/ml and 7.0 log CFU/ml and 7.2 log CFU/ml
same,S. typhimurium DT 104 counts,S. typhimurium DT 104; 0 min,7.0 log CFU/ml
same,S. typhimurium DT 104 counts,S. typhimurium DT 104; 1 min,7.0 log CFU/ml
same,S. typhimurium DT 104 counts,S. typhimurium DT 104; 2 min,6.8 log CFU/ml
same,S. typhimurium DT 104 counts,S. typhimurium DT 104; 5 min,6.9 log CFU/ml
same,S. typhimurium DT 104 counts,S. typhimurium DT 104; 10 min,6.8 log CFU/ml
same,S. typhimurium DT 104 counts,S. typhimurium DT 104; 20 min,6.9 log CFU/ml
same,S. typhimurium DT 104 counts,S. typhimurium DT 104; 30 min,6.9 log CFU/ml
same,S. typhimurium DT 104 counts,S. typhimurium DT 104; 60 min,6.9 log CFU/ml
same,CFU % recovery (as compared to control flask F),"[1]; Experiment A3, 10 min",65%
same,CFU % recovery (as compared to control flask F),"[1]; Experiment A3, 45 min",94%
same,CFU % recovery (as compared to control flask F),"[1]; Experiment A3, 180 min",95%
same,CFU % recovery (as compared to control flask F),"[1]; Experiment A4 absent heat, RT, 0 min",85%
same,CFU % recovery (as compared to control flask F),"[1]; Experiment A4 absent heat, RT, 1 h",90%
same,CFU % recovery (as compared to control flask F),"[1]; Experiment A4 absent heat, RT, 2 h",87%
same,CFU % recovery (as compared to control flask F),"[1]; Experiment A4 absent heat, RT, 3 h",98%
same,CFU % recovery (as compared to control flask F),"[1]; Experiment A4 absent heat, RT, 4 h",79%
same,CFU % recovery (as compared to control flask F),"[1]; Experiment A4 with heat, 65° C., 0 min",48%
same,CFU % recovery (as compared to control flask F),"[1]; Experiment A4 with heat, 65° C., 1 h",53%
same,CFU % recovery (as compared to control flask F),"[1]; Experiment A4 with heat, 65° C., 2 h",74%
same,CFU % recovery (as compared to control flask F),"[1]; Experiment A4 with heat, 65° C., 3 h",68%
same,CFU % recovery (as compared to control flask F),"[1]; Experiment A5 with heat, 65° C., 0 min",71%
same,CFU % recovery (as compared to control flask F),"[1]; Experiment A5 with heat, 65° C., 1 h",69%
same,CFU % recovery (as compared to control flask F),"[1]; Experiment A5 with heat, 65° C., 2 h",53%
same,CFU % recovery (as compared to control flask F),"[1]; Experiment A5 with heat, 65° C., 3 h",71%
same,CFU % recovery (as compared to control flask F),"[1]; Experiment A5 with heat, 65° C., 4 h",54%
same,L. monocytogenes counts,L. monocytogenes; 0 min,6.6 ± 0.3 log CFU/ml
same,L. monocytogenes counts,L. monocytogenes; 2 min,6.4 ± 0.1 log CFU/ml
same,L. monocytogenes counts,L. monocytogenes; 5 min,6.0 ± 0.1 log CFU/ml
same,L. monocytogenes counts,L. monocytogenes; 10 min,5.0 ± 0.3 log CFU/ml
same,L. monocytogenes counts,L. monocytogenes; 20 min,3.8 ± 0.2 log CFU/ml
same,L. monocytogenes counts,L. monocytogenes; 30 min,3.3 ± 0.1 log CFU/ml
"CC(=O)O [0.5% acetic acid, acetic acid]",S. enteritidis counts,"S. enteritidis; water, 21° C., 0 min",7.1 log CFU/ml
same,S. enteritidis counts,"S. enteritidis; water, 21° C., 2 min",7.0 log CFU/ml
same,S. enteritidis counts,"S. enteritidis; water, 21° C., 5 min",6.8 log CFU/ml
same,S. enteritidis counts,"S. enteritidis; water, 21° C., 10 min",6.7 log CFU/ml
same,S. enteritidis counts,"S. enteritidis; water, 21° C., 20 min",6.6 log CFU/ml
same,S. enteritidis counts,"S. enteritidis; water, 21° C., 30 min",6.5 log CFU/ml
